What was measured:
Type in all cases: binding
[1] = tested on: Aptamer 21 spiked into polyA+ RNA extract; assay: Capture of Aptamer 21 from PolyA+ RNA extract; conditions: versus warhead-only control ARK-2059
Description: Total RNA was extracted from a pellet of 5×10^6 HepG2 cells using the ReliaPrep mini-prep kit (Promega) according to the manufacturer's standard protocol. The polyA+ RNA fraction was isolated from 50 μL sample of total RNA at 454 ng/μL using the magnetic mRNA isolation kit (New England Biolabs, cat #S1550) according to the manufacturer's standard protocol using 450 μL of lysis buffer and 100 μL of beads.
A sample of folded aptamer 21 RNA was spiked into a sample of polyA+ RNA extract at a final concentration of 1 nM aptamer 21 and 3 ng/μL polyA+ RNA. […]
Sequencing was performed on a single Illumina HiSeq 4000 lane with 150 bp paired-end reads using the standard manufacturer protocol.
Stitched reads were then processed with Cutadapt (http://dx.doi.org/10.14806/ej.17.1.200) with at least 5-nts of overlap and a maximum of 20% mismatches to simultaneously 1) define a unique 6-nt unique molecular identifier (UMI) in the correct adapter context (ATATAGGN6AGATCGG) (SEQ. […] UMIs were appended to read names, and reads were mapped the against the genome and transcriptome references (plus Aptamer 21) using the STAR aligner (http://dx.doi.org/10.1093/bioinformatics/bts635) with at most 10% mismatches. Groups of reads with identical or near-identical UMIs were then collapsed using the Directional Adjacency methods of UMI-tools (http://dx.doi.org/10.1101/gr.209601.116) with default parameters. […]

[2] = tested on: Aptamer 21; assay: Capture of Aptamer 21 with click-biotinylated probes; conditions: Aptamer 21 or Aptamer 21-E
Description: A 50 μL sample of 1 μM folded Aptamer 21 or Aptamer 21-E solution in folding buffer (20 mM TrisHCl pH 8, 100 mM KCl, 3 mM MgCl2) was added to a 0.5 μL aliquot of 0.5 mM ARK-729, ARK-2058, ARK-816, or ARK-2059 in DMSO or a DMSO-only control. The solution was incubated at 37° C. for 1 h and then irradiated with long wave UV light (˜365 nm) for 30 min in a UV crosslinker (Fisher Scientific). To this solution was added 0.5 μL of 10 mM DBCO-biotin (Click Chemistry Tools, cat. #A105) and 2 μL of 0.5 M EDTA pH 8 and then the solution was incubated at 65° C. for 2 h. The RNA was ethanol precipitated by adding 35 μL of water, 2 uL of 5 mg/mL glycogen, 10 μL 3 M NaOAc pH 5, and 250 μL ethanol, incubating at −80° C. for 1 h, centrifuging at 20000×g for 30 min, washing the pellet twice with 500 μL of 70% ethanol, and then air drying the pellet.
The RNA pellet was redissolved in 50 μL of 1× bind/wash buffer (20 mM TrisHCl pH 7, 100 mM KCl, 0.1% Tween-20). A 50 μL aliquot of MyOne Streptavidin C1 Dynabead slurry (Thermo) was captured on a magnet, washed twice with 50 μL of 1× bind/wash buffer, and then resuspended in 50 μL of the crosslinked RNA sample. The bead suspension was rotated at room temperature for 30 min and then washed twice with 100 μL of 1× bind/wash solution. […]

[3] = tested on: Aptamer 21; assay: Reverse transcriptase pausing (drop-off) gel assay of photo-crosslinking to Aptamer 21; conditions: 1 uM RNA, 10 uM probe (9 uM PreQ1 probe), UV ~360 nm
Description: (§1) A solution of RNA at 2 to 5 μM in nuclease-free water was heated to 95° C. for 3 min and then cooled on ice for 2 min. This solution was diluted with ½ volume of 3×RNA folding buffer (60 mM TrisHCl pH 8, 300 mM KCl, 9 mM MgCl2) and incubated at 37° C. for 20 min. Folding was carried out immediately before use of the RNA in each experiment. In cases where a mixture of RNA molecules was used in vitro the RNAs were folded separately and then combined prior to the probing experiment.
Folded RNA (1 μM) was incubated with the photoaffinity probe (10 μM) in total 25 μL of buffer (20 mM TrisHCl pH 8, 100 mM KCl, 3 mM MgCl2) with 2.5% DMSO for 30 min at 37° C. to allow binding to come to equilibrium. The sample was then irradiated with long wave UV light (˜365 nm) for 30 min in a UV crosslinker (Fisher Scientific).
(§2) A 3.75 μL aliquot of 10 μM reverse transcription primer was added to the cross-linked RNA sample, which was then incubated for 5 min at 65° C. and then cooled on ice. The sample was then diluted to a final volume of 60 μL and final buffer concentration of 1× Protoscript-II buffer (New England Biolabs), 0.5 mM dNTPs, 10 mM DTT, 0.4 U/μL RNase Inhibitor (New England Biolabs), and 10 U/μL Protoscript-II (New England Biolabs). The reaction was incubated at 45° C. for 2 h, 65° C. for 20 min, and then 4° C.
The RNA was hydrolyzed by the addition of 4.8 μL of 2.5 M NaOH and heating at 95° C. for 5 min. The reaction was quenched by the addition of 0.9 μL of acetic acid. The cDNA was precipitated by the addition of 6.6 μL of 3 M sodium acetate pH 5 and 181 μL ethanol, cooling to −80° C. for 1 h, and then centrifuging at 20,500×g at 4° C. for 30 min. The cDNA pellet was washed twice with 500 μL of 70% ethanol and then air dried for 5 min.
The cDNA pellet was resuspended in 12 μL of 1×TBE-urea sample loading buffer (Bio-Rad) and heated to 95° C. for 5 min. The sample was then run on a pre-cast 8.6×6.7 cm TBE-urea 10% PAGE gel (Bio-Rad) at 120 V until the lower bromophenol blue dye reached the bottom of the gel. The gel was stained with 1×SYBR-gold (Invitrogen) in 1×TBE buffer at room temperature for 20 min covered from light. The gel fluorescence was imaged on an Azure c600 instrument.

[4] = tested on: PreQ1 RNA; assay: Reverse transcriptase pausing gel assay of photo-crosslinking to PreQ1 RNA; conditions: 1 uM RNA, 9 uM PreQ1 probe, UV ~360 nm
Description: as §1
[…] The sample was then irradiated with long wave UV light (˜365 nm) for 30 min in a UV crosslinker (Fisher Scientific).
as §2
The RNA was hydrolyzed by the addition of 4.8 μL of 2.5 M NaOH and heating at 95° C. for 5 min. […]
The cDNA pellet was resuspended in 12 μL of 1×TBE-urea sample loading buffer (Bio-Rad) and heated to 95° C. for 5 min. […] The gel fluorescence was imaged on an Azure c600 instrument.

Compound | enrichment analysis of Aptamer 21 from PolyA+ RNA extract ([1]; avidin capture, next-generation sequencing) | RT pausing ratio peaks on Aptamer 21 spiked into PolyA+ RNA extract ([1]; extract from HepG2 cells) | RT pausing peaks after click-biotinylation and avidin bead enrichment [2] | cross-linking with Apt21 RNA (RT pausing) [3] | cross-linking to PreQ1 RNA (RT pausing) [4]
COC(=O)C1=C(COCc2cn(CCOCCOCCC(=O)NCCC3(CCN=[N+]=[N-])N=N3)nn2)NC(c2ccncc2)=NC1c1ccc(F)cc1Cl (centres unmarked) [ARK-816] | Enrichment of the sites of probe-specific RT pausing on Aptamer 21 was observed | observed at the same positions as for isolated Aptamer 21 | RT pausing peaks specific to Aptamer 21 |  | 
CC1(CCC(=O)NCCOCCOCCNCc2c[nH]c3nc(N)[nH]c(=O)c23)N=N1 [I-23] |  |  |  | does not show cross-linking | does not show cross-linking

Source: US12503455B2, “Nucleic acid-binding photoprobes and uses thereof” (Arrakis Therapeutics, Inc., priority 2017, dated 2025)
